Source: patent publication US8022208B2, “Benzene derivative or salt thereof” (Astellas Pharma Inc., priority 2005, dated 2011)

Columns and labels:
[1] = target: T1, human factor Xa (Homo sapiens, UniProt P00742); assay: Enzyme inhibition by synthetic substrate method (S-2222); assay type: biochemical; details: human factor Xa 0.025 U/ml, synthetic substrate S-2222, pH 8.4, 37° C., 10 minutes
T1 construct: purchased Enzyme Research Labs
Protocol: 2) Test of Measuring Enzyme Inhibition by Synthetic Substrate Method:
25 μl of a reaction buffer (pH 8.4), 5 μl of a test compound dissolved in DMSO or DMSO alone, and 10 μl of a synthetic substrate, 2 mM S-2222 (Chromogenix) were added to a 96-well microplate, then 10 μl of 0.025 U/ml human factor Xa was added thereto, and reacted at 37° C. for 10 minutes, and then the absorbance change at 405 nm was measured with Molecular Devices' Spectramax 340PC^384, and the IC50 value was calculated.

[2] = test system: human plasma; assay: Extrinsic coagulation time (PT) in human plasma; details: HemosIL RecombiPlasTin
Protocol: 3) Extrinsic Coagulation Time (PT):
2 μl of a test compound dissolved in DMSO or DMSO alone, and 50 μl of physiological saline were added to 50 μl of human plasma warmed at 37° C. for 1 minute, then 100 μl of HemosIL RecombiPlasTin (Instrumentation Laboratory) was added, and the coagulation time was measured. For measuring the coagulation time, used was Amelung's KC10A. The CT2 value (the concentration for 2-fold prolongation of the coagulation time with DMSO) was calculated through linear regression, by plotting the relative value (fold) of the coagulation time to the control and the test compound concentration.

[3] = test system: mouse plasma; assay: Ex vivo coagulation time with mice (oral administration), extrinsic coagulation time (PT); assay type: in vivo, male ICR mice; details: oral 100 mg/kg, 30 minutes after administration
Protocol: 4) Test of Measuring Ex Vivo Coagulation Time with Mice (Oral Administration):
To test animals of male ICR mice (body weight, about 40 g, SLC) that had been fasted for 12 hours or longer, a solution or suspension of a test compound dissolved in 0.5% methyl cellulose was forcedly orally administered (100 mg/kg), using a feeding needle; and after 30 minutes and after 2 hours, under anesthesia with diethyl ether, 1 ml of blood was collected from the mice through their postcaval vein in 3.8% sodium citrate to be 1/10 by volume, and centrifuged at 12000 rpm for 3 minutes to separate plasma therefrom. The extrinsic coagulation time (PT) and the intrinsic coagulation time (APTT) for this plasma were measured according to the following methods a) and b).
a) Extrinsic Coagulation Time (PT):
50 μl of the mouse plasma was warmed at 37° C. for 1 minute, and 100 μl of HemosIL RecombiPlasTin was added, and the coagulation time was counted. For measuring the coagulation time, used was Amelung's KC10A. The mouse plasma coagulation time with no test compound administration was control; and the coagulation time prolonging activity of the test compound was represented by a relative value to the control, 1.

T1 sequence (P00742 235-488 limits assumed): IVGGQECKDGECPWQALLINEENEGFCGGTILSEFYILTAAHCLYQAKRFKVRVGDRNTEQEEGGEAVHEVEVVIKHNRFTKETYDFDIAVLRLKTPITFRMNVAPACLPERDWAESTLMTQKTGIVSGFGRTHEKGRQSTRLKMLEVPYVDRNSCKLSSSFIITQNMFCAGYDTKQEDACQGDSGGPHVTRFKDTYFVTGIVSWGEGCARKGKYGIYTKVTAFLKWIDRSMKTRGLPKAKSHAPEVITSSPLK
T1 sequence (P00742 41-179 partner limits assumed): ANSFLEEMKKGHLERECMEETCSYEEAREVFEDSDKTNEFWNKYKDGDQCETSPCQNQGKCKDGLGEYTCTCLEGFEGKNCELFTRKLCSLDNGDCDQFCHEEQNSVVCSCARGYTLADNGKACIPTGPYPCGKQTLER

Compound	IC50 [1] [nM]	CT2 value (the concentration for 2-fold prolongation of the coagulation time with DMSO) [2] [µM]	coagulation time prolonging activity (relative value to the control, 1) [3] [times]
Cl.Cn1ccc(=O)c(-c2ccc(C(=O)Nc3c(O)cccc3C(=O)Nc3ccc(Cl)cn3)cc2)c1 [Example 1, N-(5-chloropyridin-2-yl)-3-hydroxy-2-{[4-(1-methyl-4-oxo-1,4-dihydropyridin-3-yl)benzoyl]amino}benzamide hydrochloride]	6.7	0.34	
Cl.O=C(Nc1c(O)cccc1C(=O)Nc1ccc(Cl)cn1)c1ccc(-c2cccn(CCN3CCCOCC3)c2=O)cc1 [Example 42]		0.65	
CN1CCC(OCCn2cccc(-c3ccc(C(=O)Nc4c(O)cc(Cl)cc4C(=O)Nc4ccc(Cl)cn4)cc3)c2=O)CC1.Cl [Example 78]			3.9
CN(C)CCn1cccc(-c2ccc(C(=O)Nc3c(O)cccc3C(=O)Nc3ccc(Cl)cn3)cc2)c1=O.Cl [Example 10]			3.3
Cn1cccc(-c2ccc(C(=O)Nc3c(O)cccc3C(=O)Nc3ccc(Cl)cn3)cc2)c1=O [Example 30]	8.3		
